ChEMBL document CHEMBL5303765, “Data for DCP probe BAY-7081” (2023)

Key:
[1] = target: Mu-type opioid receptor (Homo sapiens, UniProt P35372); experiment: GPCRScan assay: inhibition of MOR; design: radioligand conc. used [nm] 1.0 – 2.0, parental cells stable HEK
[2] = target: cGMP-inhibited 3',5'-cyclic phosphodiesterase 3B (Homo sapiens, UniProt Q13370); experiment: Panlabs assay PDE3B; design: compound concentration 10 uM; settings: at 10 µM
[3] = target: 3',5'-cyclic-AMP phosphodiesterase 4B (Homo sapiens, UniProt Q07343); experiment: Panlabs assay PDE4B1; design: compound concentration 10 uM; settings: at 10 µM
[4] = target: T1, cGMP-specific 3',5'-cyclic phosphodiesterase (Homo sapiens, UniProt O76074); experiment: Panlabs assay PDE5A; design: compound concentration 10 uM; settings: at 10 µM
[5] = target: Phosphodiesterase 6 (Bos taurus) (UniProt P23439+P16586+P11541+P22571+P04972+Q95142); experiment: Panlabs assay PDE6; assay type: tissue-based; design: compound concentration 10 uM; settings: retina, at 10 µM
[6] = target: T2, cAMP and cAMP-inhibited cGMP 3',5'-cyclic phosphodiesterase 10A (Homo sapiens, UniProt Q9Y233); experiment: Panlabs assay PDE10A2; design: compound concentration 10 uM; settings: at 10 µM
T2 sequence (Q9Y233 whole entry): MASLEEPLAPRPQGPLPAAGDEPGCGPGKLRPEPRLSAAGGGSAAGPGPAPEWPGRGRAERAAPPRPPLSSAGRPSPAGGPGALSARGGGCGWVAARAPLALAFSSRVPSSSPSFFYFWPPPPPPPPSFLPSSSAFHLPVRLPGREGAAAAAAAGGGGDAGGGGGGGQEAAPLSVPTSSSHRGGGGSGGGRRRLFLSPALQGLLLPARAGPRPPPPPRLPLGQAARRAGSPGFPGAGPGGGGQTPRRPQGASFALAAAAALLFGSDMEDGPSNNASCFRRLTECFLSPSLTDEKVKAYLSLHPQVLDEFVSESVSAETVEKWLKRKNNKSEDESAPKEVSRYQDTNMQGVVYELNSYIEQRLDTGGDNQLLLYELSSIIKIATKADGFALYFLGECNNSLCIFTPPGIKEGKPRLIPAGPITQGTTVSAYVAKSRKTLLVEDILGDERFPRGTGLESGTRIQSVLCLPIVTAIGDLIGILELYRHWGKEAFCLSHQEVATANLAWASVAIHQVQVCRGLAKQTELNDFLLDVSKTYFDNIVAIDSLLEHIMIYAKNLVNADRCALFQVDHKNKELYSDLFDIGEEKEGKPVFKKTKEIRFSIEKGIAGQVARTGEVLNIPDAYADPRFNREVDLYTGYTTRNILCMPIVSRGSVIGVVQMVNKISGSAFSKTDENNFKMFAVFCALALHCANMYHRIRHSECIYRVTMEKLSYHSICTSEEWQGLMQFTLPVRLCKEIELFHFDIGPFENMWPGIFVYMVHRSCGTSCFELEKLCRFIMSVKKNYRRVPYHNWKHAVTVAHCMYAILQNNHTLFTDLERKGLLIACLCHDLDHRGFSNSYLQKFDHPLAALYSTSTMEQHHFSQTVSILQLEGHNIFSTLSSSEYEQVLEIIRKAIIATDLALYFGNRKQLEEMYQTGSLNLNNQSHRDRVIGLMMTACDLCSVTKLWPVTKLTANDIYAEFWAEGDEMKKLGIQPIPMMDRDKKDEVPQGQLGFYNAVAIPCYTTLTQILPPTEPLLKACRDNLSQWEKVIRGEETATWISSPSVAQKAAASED

[7] = target: T2, cAMP and cAMP-inhibited cGMP 3',5'-cyclic phosphodiesterase 10A; experiment: 3H-cAMP and 3H-cGMP Scintillation Proximity Assay (PDE10A)
[8] = target: Prostaglandin G/H synthase 1 (Homo sapiens) (UniProt P23219); experiment: Cyclooxygenase COX-1 Eurofins Panlabs panel; settings: Compound concentration 10.0 uM
Prostaglandin G/H synthase 1 (Homo sapiens), sequence (P23219 whole entry): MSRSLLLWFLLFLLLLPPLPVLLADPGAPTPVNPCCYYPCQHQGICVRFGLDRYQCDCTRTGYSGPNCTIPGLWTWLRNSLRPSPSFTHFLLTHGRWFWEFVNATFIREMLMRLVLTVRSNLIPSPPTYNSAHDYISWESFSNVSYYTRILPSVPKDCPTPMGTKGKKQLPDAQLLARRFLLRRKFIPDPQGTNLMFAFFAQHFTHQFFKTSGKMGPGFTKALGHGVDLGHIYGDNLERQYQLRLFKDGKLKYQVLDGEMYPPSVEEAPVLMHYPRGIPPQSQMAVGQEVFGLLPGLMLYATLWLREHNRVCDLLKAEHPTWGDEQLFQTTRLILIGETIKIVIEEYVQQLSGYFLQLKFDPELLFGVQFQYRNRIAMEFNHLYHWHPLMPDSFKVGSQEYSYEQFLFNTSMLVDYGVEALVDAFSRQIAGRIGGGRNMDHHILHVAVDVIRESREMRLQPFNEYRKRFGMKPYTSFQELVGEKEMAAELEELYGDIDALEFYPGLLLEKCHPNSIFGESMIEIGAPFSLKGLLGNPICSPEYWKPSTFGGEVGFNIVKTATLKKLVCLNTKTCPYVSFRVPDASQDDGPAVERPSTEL

[9] = target: Nitric oxide synthase, inducible (Mus musculus) (UniProt P29477); experiment: Nitric Oxide Synthetase, Inducible (iNOS) Eurofins Panlabs panel; settings: Compound concentration 10.0 uM
[10] = target: Phosphodiesterase 4 (Homo sapiens) (UniProt P27815+Q08499+Q07343+Q08493); experiment: Phosphodiesterase PDE4 Eurofins Panlabs panel; assay type: protein assay; settings: Compound concentration 10.0 uM
[11] = target: T1, cGMP-specific 3',5'-cyclic phosphodiesterase; experiment: Phosphodiesterase PDE5 Eurofins Panlabs panel; settings: Compound concentration 10.0 uM
[12] = target: Beta-1 adrenergic receptor (Homo sapiens) (UniProt P08588); experiment: Adrenergic beta1 Eurofins Panlabs panel; settings: Compound concentration 10.0 uM
Beta-1 adrenergic receptor (Homo sapiens), sequence (P08588 whole entry, looked up): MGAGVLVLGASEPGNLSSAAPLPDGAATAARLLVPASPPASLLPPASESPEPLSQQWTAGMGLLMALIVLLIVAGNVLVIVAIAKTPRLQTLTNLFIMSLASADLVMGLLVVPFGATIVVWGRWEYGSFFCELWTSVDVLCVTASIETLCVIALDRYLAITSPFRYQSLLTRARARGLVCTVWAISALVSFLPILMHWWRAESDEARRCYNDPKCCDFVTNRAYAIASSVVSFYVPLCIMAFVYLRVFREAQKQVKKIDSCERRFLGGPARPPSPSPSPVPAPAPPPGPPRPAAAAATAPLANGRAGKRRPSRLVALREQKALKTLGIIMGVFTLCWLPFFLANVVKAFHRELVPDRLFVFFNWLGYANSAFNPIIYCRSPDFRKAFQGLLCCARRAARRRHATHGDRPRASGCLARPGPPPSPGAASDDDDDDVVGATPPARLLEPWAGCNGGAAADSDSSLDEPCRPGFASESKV

[13] = target: Androgen receptor (Homo sapiens) (UniProt P10275); experiment: Androgen (Testosterone) Eurofins Panlabs panel; settings: Compound concentration 10.0 uM
[14] = target: D(1A) dopamine receptor (Homo sapiens) (UniProt P21728); experiment: Dopamine D1 Eurofins Panlabs panel; settings: Compound concentration 10.0 uM
[15] = target: D(2) dopamine receptor (Homo sapiens) (UniProt P14416); experiment: Dopamine D2S Eurofins Panlabs panel; settings: Compound concentration 10.0 uM
[16] = target: D(3) dopamine receptor (Homo sapiens) (UniProt P35462); experiment: Dopamine D3 Eurofins Panlabs panel; settings: Compound concentration 10.0 uM
D(3) dopamine receptor (Homo sapiens), sequence (P35462 whole entry): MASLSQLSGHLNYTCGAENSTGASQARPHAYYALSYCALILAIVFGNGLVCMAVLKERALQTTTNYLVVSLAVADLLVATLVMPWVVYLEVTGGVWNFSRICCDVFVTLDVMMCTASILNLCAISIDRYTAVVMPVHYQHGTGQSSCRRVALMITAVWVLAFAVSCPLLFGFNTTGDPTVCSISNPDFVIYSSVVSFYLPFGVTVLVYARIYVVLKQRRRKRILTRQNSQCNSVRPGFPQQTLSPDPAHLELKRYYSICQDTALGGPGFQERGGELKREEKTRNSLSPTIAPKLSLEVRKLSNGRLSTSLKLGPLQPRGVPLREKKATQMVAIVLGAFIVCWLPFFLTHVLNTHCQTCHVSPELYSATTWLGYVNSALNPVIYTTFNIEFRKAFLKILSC

[17] = target: Endothelin receptor type B (Homo sapiens) (UniProt P24530); experiment: Endothelin ETB Eurofins Panlabs panel; settings: Compound concentration 10.0 uM
[18] = target: T3, GABA-A receptor; anion channel (Rattus norvegicus) (UniProt O09028+P15431+P18506+P18508+P19969+P20236+P23574+P23576+P28471+P28473+P30191+P62813+P63079+P63138+Q91ZM7+Q9ES14); experiment: GABAA, Chloride Channel, TBOB Eurofins Panlabs panel; assay type: protein-complex assay; settings: Compound concentration 10.0 uM
[19] = target: T3, GABA-A receptor; anion channel (Rattus norvegicus); experiment: GABAA, Flunitrazepam, Central Eurofins Panlabs panel; assay type: protein-complex assay; settings: Compound concentration 10.0 uM
[20] = target: GABA B receptor (Rattus norvegicus) (UniProt Q9Z0U4+O88871); experiment: GABAB, Non-Selective Eurofins Panlabs panel; assay type: protein-complex assay; settings: Compound concentration 10.0 uM
[21] = target: T4, Muscarinic acetylcholine receptor M1 (Homo sapiens) (UniProt P11229); experiment: Muscarinic M1 Eurofins Panlabs panel; settings: Compound concentration 10.0 uM
T4 sequence (whole entry): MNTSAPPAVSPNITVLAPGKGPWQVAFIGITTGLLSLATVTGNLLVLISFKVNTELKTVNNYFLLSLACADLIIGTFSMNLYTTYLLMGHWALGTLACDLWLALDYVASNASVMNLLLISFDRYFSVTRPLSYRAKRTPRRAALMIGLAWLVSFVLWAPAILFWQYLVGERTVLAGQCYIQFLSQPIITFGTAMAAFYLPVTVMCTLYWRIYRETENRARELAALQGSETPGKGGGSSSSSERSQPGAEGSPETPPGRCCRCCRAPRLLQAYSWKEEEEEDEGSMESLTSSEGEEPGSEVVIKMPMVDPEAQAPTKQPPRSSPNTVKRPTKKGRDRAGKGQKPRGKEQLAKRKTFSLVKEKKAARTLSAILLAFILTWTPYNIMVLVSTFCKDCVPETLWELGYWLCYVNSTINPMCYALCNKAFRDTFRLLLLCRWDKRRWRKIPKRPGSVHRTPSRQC

[22] = target: T5, 5-hydroxytryptamine receptor 2C (Homo sapiens) (UniProt P28335); experiment: Serotonin (5-Hydroxytryptamine) 5-HT2C Eurofins Panlabs panel; settings: Compound concentration 10.0 uM
T5 sequence (whole entry): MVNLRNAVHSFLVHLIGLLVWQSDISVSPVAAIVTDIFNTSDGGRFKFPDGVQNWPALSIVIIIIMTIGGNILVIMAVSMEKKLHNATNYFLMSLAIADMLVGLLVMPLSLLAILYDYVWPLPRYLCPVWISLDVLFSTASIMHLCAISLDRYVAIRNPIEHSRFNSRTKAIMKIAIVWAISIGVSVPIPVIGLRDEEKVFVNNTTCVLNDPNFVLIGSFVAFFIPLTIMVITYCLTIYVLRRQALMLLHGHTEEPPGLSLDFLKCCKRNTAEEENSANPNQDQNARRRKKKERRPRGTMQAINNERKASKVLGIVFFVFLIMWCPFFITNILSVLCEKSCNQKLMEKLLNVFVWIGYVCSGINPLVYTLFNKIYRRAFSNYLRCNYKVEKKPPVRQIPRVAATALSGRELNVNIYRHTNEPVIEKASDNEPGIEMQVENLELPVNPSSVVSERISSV

[23] = target: T6, 5-hydroxytryptamine receptor 3A (Homo sapiens) (UniProt P46098); experiment: Serotonin (5-Hydroxytryptamine) 5-HT3 Eurofins Panlabs panel; settings: Compound concentration 10.0 uM
T6 sequence (whole entry): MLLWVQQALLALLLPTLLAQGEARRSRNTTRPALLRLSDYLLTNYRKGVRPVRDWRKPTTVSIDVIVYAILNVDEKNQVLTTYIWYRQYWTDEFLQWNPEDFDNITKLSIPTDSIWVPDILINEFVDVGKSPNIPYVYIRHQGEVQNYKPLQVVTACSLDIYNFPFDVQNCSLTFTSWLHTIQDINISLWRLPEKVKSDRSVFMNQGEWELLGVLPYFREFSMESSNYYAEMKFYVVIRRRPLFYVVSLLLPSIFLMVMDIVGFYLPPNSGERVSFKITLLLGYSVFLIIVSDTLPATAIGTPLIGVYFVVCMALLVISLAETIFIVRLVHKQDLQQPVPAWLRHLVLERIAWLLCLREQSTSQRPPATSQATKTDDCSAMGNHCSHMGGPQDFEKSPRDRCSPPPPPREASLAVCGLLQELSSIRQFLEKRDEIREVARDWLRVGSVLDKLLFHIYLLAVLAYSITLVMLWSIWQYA

[24] = target: 5-hydroxytryptamine receptor 4 (Cavia porcellus) (UniProt O70528); experiment: Serotonin (5-Hydroxytryptamine) 5-HT4 Eurofins Panlabs panel; settings: Compound concentration 10.0 uM
[25] = target: Sodium-dependent dopamine transporter (Homo sapiens) (UniProt Q01959); experiment: Transporter, Dopamine (DAT) Eurofins Panlabs panel; settings: Compound concentration 10.0 uM
Sodium-dependent dopamine transporter (Homo sapiens), sequence (Q01959 whole entry): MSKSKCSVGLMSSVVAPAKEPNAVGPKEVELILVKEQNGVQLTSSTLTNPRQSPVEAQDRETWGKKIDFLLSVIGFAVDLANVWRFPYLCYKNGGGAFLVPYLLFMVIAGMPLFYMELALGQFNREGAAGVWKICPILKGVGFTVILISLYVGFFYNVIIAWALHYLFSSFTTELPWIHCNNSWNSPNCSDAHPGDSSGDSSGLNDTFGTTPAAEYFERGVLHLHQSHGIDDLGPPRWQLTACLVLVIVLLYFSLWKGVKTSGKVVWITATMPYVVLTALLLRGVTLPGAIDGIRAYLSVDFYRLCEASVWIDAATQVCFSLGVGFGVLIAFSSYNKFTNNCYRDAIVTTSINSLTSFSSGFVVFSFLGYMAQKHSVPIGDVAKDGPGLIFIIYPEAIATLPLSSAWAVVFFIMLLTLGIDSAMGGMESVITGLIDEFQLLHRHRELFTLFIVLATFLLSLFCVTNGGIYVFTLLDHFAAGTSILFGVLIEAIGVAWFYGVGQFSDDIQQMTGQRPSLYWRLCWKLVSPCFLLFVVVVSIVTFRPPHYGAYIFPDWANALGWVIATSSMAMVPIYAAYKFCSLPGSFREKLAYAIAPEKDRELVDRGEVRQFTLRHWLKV

[26] = target: Sodium-dependent dopamine transporter (Homo sapiens) (UniProt Q01959); experiment: Uptake, Dopamine - Antagonist Eurofins Panlabs panel; settings: Compound concentration 10.0 uM
[27] = target: Prostaglandin E2 receptor EP3 subtype (Homo sapiens) (UniProt P43115); experiment: Prostanoid EP3 Eurofins Panlabs panel; settings: concentration not given here
[28] = target: Prostaglandin F2-alpha receptor (Homo sapiens) (UniProt P43088); experiment: Prostanoid FP Eurofins Panlabs panel; settings: Compound concentration 10.0 uM
Prostaglandin F2-alpha receptor (Homo sapiens), sequence (P43088 whole entry): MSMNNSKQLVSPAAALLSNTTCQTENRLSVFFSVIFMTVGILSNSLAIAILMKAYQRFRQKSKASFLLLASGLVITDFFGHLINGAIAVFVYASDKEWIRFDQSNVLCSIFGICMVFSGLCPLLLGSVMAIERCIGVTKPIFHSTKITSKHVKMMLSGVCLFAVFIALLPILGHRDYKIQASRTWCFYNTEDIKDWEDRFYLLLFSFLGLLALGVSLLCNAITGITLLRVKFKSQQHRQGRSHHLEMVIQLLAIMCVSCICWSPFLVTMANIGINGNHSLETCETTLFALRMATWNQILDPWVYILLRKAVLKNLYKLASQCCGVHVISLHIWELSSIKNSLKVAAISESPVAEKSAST

Mu-type opioid receptor, sequence (P35372 whole entry): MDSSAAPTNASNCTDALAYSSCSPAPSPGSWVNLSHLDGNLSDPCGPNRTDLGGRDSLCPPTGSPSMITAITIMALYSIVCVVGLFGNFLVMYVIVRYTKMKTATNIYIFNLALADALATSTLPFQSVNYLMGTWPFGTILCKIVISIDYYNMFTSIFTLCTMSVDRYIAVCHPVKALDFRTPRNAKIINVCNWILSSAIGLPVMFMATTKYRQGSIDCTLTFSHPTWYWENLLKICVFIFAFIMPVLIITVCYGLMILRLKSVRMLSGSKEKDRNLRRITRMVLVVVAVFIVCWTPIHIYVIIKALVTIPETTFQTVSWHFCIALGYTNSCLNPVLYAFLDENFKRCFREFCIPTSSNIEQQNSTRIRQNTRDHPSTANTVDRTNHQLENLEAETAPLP
cGMP-inhibited 3',5'-cyclic phosphodiesterase 3B, sequence (Q13370 whole entry, looked up): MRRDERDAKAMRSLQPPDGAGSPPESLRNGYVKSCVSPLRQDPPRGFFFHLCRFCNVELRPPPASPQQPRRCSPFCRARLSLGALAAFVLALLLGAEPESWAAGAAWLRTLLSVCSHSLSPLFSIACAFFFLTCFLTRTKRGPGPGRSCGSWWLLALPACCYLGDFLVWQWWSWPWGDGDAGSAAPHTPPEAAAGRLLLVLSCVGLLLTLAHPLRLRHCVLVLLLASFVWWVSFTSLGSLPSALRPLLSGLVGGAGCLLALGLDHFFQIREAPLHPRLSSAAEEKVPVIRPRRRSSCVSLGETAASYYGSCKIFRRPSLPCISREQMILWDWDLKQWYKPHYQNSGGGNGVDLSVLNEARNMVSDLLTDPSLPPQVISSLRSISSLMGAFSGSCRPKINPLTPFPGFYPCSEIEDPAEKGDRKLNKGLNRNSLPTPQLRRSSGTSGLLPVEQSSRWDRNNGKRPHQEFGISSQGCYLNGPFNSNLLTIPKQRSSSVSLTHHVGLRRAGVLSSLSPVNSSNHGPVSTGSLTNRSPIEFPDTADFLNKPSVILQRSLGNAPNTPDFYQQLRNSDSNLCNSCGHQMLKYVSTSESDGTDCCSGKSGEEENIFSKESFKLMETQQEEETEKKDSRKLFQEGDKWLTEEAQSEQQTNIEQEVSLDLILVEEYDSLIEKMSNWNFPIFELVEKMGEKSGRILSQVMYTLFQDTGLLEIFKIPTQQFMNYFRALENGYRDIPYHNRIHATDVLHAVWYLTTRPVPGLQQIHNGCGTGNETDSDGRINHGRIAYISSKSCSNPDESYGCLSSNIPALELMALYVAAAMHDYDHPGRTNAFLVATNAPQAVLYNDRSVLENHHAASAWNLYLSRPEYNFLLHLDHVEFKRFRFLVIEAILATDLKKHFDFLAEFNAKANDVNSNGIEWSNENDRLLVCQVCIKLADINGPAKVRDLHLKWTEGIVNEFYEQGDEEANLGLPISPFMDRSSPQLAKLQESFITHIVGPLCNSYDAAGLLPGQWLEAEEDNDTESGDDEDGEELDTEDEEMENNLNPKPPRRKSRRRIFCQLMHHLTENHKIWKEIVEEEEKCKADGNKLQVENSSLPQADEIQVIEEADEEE

SMILES: CCC[C@@H]1CNCc2c1[nH]c(=O)c(C#N)c2N1CCC2(CC1)CC2
- Ki ([1]; read-out: Ki): 4.71 µM
- Ki ([1]; read-out: pKi (converted)): 4.68 µM
- inhibition [2]: 0.8%
- inhibition [3]: 10.6%
- inhibition [4]: 12.2%
- inhibition [5]: 16.7%
- inhibition [6]: 1.6%

SMILES: CCC[C@H]1CNCc2c1[nH]c(=O)c(C#N)c2N1CCC2(CC1)CC2
- IC50 [7]: > 10 µM (not active)
- inhibition [8]: 1%
- inhibition [9]: 6%
- inhibition [10]: 58%
- inhibition [11]: 59%
- inhibition [12]: 5.2%
- inhibition [13]: -6%
- inhibition [14]: 1%
- inhibition [15]: -2%
- inhibition [16]: 2%
- inhibition [17]: 8%
- inhibition [18]: 4%
- inhibition [19]: 16.5%
- inhibition [20]: -1%
- inhibition [21]: -4%
- inhibition [22]: 5%
- inhibition [23]: 3.75%
- inhibition [24]: 22%
- inhibition [25]: 19%
- inhibition [26]: 22%
- inhibition [27]: 0%
- inhibition [28]: 13%
